The test system of one test is ApoE null mice. The test can be described thus: HDL paraoxonase activity in apoE null mice. Format: in vivo. The following applies: FIG. 16. On the procedure: Female apoE null mice 4 months of age (n=4 per group) were administered by intraperitoneal injection either scrambled D-4F (a non-active control peptide) or D-4F at 10 μg/mouse or the peptide Ac-KWIYHLTEGSTDLRTEG-NH2 (SEQ ID NO:643) synthesized from L-amino acids (L-ApoM) at 50 μg/mouse. The mice were bled 2 or 6 hours later and their HDL isolated by FPLC and the paraoxonase activity in the HDL determined and plotted on the X-axis. Other 4-month-old female apoE null mice (n=4 per group) were administered by gastric gavage the peptide Ac-KWIYHLTEGSTDLRTEG-NH2 (SEQ ID NO:643) synthesized from L-amino acids (L-ApoM) at 100 μg/mouse (L-ApoM by gavage). The mice were bled 6 hours later and their HDL isolated by FPLC and the paraoxonase activity in the HDL determined and plotted on the X-axis.

The next test concerns cynomologous monkeys. Kind of test: Monkey HDL and LDL after oral peptide tested for monocyte chemotactic activity in human artery wall cell cultures. It is filed as in vivo. The settings on record: five milligrams by stomach tube, 6 hours. On the procedure: Five milligrams of the peptide LAEYHAK (SEQ ID NO: 8) synthesized from all D-amino acids was administered to each of four cynomologous monkeys in 2.0 mL of water by stomach tube and followed with 2.0 mL of water as a wash. Six hours later the monkeys were bled and their plasma fractionated by fast protein liquid chromatography (FPLC) and tested in human artery wall cell cultures.

The results in this text go back to patent US20060205669A1, “G-type peptides and other agents to ameliorate atherosclerosis and other pathologies” (The Regents of the University of California, priority 2004, published 2006).

Regarding Ac-KWIYHLTEGSTDLRTEG-NH2 [L-ApoM], the HDL paraoxonase activity entry with ApoE null mice (gastric gavage 100 μg/mouse, bled 6 hours later) is given as “increased paraoxonase activity”; in the test with ApoE null mice (intraperitoneal injection 50 μg/mouse, bled 2 or 6 hours later) it was “increased paraoxonase activity”.

Turning to “LAEYHAK (Synthetic peptide. Can be protected or unprotected as shown in specification.)”, in the test on cynomologous monkeys (monkey HDL 50 μg/mL HDL-cholesterol, FIG. 17 panel B), the “monocyte chemotactic activity with hLDL plus monkey HDL taken after peptide versus time zero” value was “significantly reduced monocyte chemotactic activity”. Besides, the “monocyte chemotactic activity induced by monkey LDL taken after peptide versus time zero” value with cynomologous monkeys (monkey LDL 100 μg/mL LDL-cholesterol, FIG. 17 panel C) is “significantly less monocyte chemotactic activity”.
